The record followed here is US20140161767A1, “FOLLICLE-STIMULATING HORMONE (FSH)/LYTIC DOMAIN FUSION CONSTRUCTS AND METHODS OF MAKING AND USING SAME” (BOARD OF SUPERVISORS OF LOUISIANA STATE UNIVERSITY AND …, priority 2012, published 2014).

One test concerns MES-SA-Dx5. Briefly: Cell viability after 4 hours (Cell Titer Glo), MES-SA-Dx5. The test is classed as cell-based, human. The note with it: 4 h incubation; read-out: Activities [μM] MES-SA-Dx5 (p61). As to the method: Human ovarian cancer cell lines OVCAR-3 (p 41), SKOV-3 (p 35) and the human uterine sarcoma cell line MES-SA-Dx5 (p 61) (multi-drug resistant clone), the human pancreatic cancer cell line Panc-1 (passage number 18), and human triple negative breast cancer cell line MDA-MB-231 (passage number 47) were grown in ATCC recommended medium, 10% fetal bovine serum, 100 IU/ml penicillin, 100 microg/ml streptomycin. Cells were typically seeded (2,000 cells per well) into 96 well plates and media was replaced after 48 hours of incubation. […] Each Phor-18-hFSH-β81-89 conjugate provided in lyophilized form was dissolved in saline and added to cells. The duration of incubation was 4 hours at 37° C. Cell viability was assessed after 4 hours using a luminometric assays (Promega, Cell Titer Glo, G755B, lot #00000031421). Controls contained saline or 0.1% triton as reference for 0 and 100% cell death, respectively.
Data were processed and analyzed using GraphPad Prism version 5.00 for Windows, GraphPad Software, San Diego Calif. USA, www.graphpad.com”. Statistical analysis for significance was determined by a two-tailed Student's T-test. Each study was conducted to achieve an N of at least 6.
In vitro activities were expressed as IC50 values for each cell line, time point and compound tested that were calculated using the Hill equation (Graph Pad Prizm software).
A general note: ATP-based viability assays read luminescence as a measure of living cells.

For the next test, the system named is MDA-MB-435S xenograft. Briefly: MDA-MB-435S xenograft, kinetics of tumor destruction after a single injection. The test is classed as in vivo, mice. Particulars: single i.v. injection, 0.2 and 2 mg/kg. As for the experimental part:
In brief, Nu/Nu female mice, outbred strain, age 5 weeks (Charles River), were injected (s.c.) into the interscapular region with a MDA-MB-435S (passage #249)/Matrigel suspension (2.4×10^6 cells/mouse) as described in Example 10. […] The doses were given as a single bolus intravenous injection via lateral tail vein.
Mice were sacrificed 1, 2 and 16 hours after treatment with Phor 18-LHRH (338613) or saline. At study endpoint body weight, tumor weights were determined and tumors were fixed in phosphate buffered 10% formalin.

The next test deals with NIH:3T3. The test is classed as cell-based, mouse. Particulars: non cancerous cell line 3T3. The source says: Membranes of non-cancerous cell lines are neutral and are resistant to cytolytic peptides, in contrast to cancer cell lines, which have a high phosphatidic acid content in their outer membrane.
The breast cancer cell lines studied were MDA-MB-4355 (estrogen receptor alpha negative), MCF-7 and T47D (estrogen receptor alpha positive), ovarian cancer cell lines (OVCAR-3 and SKOV-3), prostate cancer (LNCaP), the non-malignant breast epithelial cell line MCF-10A and the mouse fibroblast cell line NIH:3T3.
Cells were seeded into 96 well plates at a densitiy of 10,000 cells/well. […] Controls contained USP saline or 0.1% TritonX-100™ as reference for 0 and 100% cell death, respectively. […] Cell viability was assessed through formazan conversion assay (MTT assay, (CellTiter 96 Aqueous One, Promega # G3582). Formazan conversion was determined using a BioRad Benchmark Plus microplate spectrophotometer dual wavelengths at 490/630 nm at room temperature).
Data were calculated as fraction of absorption in TritonX-100™ containing wells representing 100% cell death versus 0% cell death in saline containing wells. Cytotoxicity was determined as IC50 using GraphPad Prism version 5.01 for Windows, GraphPad Software, San Diego Calif. […] 4 wells of each individual set of two 96 well plates were compared and analyzed. Statistical analysis for significance was determined by a two-tailed Student's T-test.

With KFAKFAK KFAKFAK KFAK [Phor18], the IC50 in the test on MES-SA-Dx5 was determined as 28.1 ± 2.5 µM.

In the case of “KFAKFAKKFAKFAKKFAKQHWSYGLRPG [Phor18-LHRH]”, the “Time after injection to destruction of tumors” value with MDA-MB-435S xenograft was 1 h. The IC50 with NIH:3T3 is above 10 µM.
